The subject of data set [1] is 50B11 cells. The settings on record: 24 hours. How it is done:
Conditions for culturing the 50B11 cells and measuring the ATP levels were optimized for the 96-well plate format. Initially 500 cells/well were plated in 96-well plates for 24 hours and then differentiated with forskolin (50 μM) in culture medium with reduced serum (0.2%). […] Cellular ATP levels were measured using the ViaLight Plus kit (Cambrex, city, state) according to manufacturer's instructions. This luciferase-based assay allows measurement of ATP levels on a luminometer with minimal manipulation of the well contents.
Next, we tested whether we can evaluate the neurotoxicity of capsaicin in an assay suitable for 96-well plate format. Capsaicin causes axonal degeneration and death of nociceptive DRG sensory neurons [ref here]. In order to evaluate cell survival we used a luciferase-based assay to measure cellular ATP levels.

For another data set, the target named is T1, TRPV-1 (Rattus norvegicus, UniProt O35433).
T1 construct: endogenous in cells; host or cells: 50B11 immortalized rat DRG neuronal cell line, with and without forskolin differentiation
T1 sequence (O35433 whole entry): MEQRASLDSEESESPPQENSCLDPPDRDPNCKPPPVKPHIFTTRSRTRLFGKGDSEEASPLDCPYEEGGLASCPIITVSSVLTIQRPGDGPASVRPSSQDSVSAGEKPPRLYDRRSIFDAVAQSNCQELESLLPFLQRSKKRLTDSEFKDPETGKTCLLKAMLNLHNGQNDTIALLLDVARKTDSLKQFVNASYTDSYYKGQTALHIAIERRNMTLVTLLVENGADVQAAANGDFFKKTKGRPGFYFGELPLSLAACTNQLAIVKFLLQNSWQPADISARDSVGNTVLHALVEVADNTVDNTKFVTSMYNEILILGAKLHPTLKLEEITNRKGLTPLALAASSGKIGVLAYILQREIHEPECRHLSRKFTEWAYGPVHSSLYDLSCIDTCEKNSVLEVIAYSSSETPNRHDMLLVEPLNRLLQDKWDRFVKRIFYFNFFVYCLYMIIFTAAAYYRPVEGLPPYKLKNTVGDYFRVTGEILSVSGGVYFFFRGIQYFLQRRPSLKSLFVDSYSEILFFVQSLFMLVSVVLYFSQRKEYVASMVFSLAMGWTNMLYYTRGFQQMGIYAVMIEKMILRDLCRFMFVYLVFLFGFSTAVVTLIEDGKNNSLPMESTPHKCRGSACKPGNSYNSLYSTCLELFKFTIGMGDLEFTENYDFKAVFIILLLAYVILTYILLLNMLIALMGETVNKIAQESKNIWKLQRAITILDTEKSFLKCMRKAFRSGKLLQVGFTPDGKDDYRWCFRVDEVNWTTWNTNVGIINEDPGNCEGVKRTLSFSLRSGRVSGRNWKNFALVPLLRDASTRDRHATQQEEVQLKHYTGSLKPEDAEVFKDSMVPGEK
Briefly: Ca2+ microfluorimetry (fura-2 ratiometric imaging) of the capsaicin response. It is filed as cell-based.

Data set [2] deals with 50B11 cells. Briefly: Axonal degeneration, total neurite length measurement. It counts as cell-based, rat. Particulars: differentiated 50B11 cells treated 24 hours.
Data set [3] concerns 50B11 cells. Put plainly: Forskolin-induced differentiation and neurite extension of the immortalized DRG neuronal line. It counts as cell-based, rat. The settings on record: for neurite extension in presence of neurotrophic factor: 50B11 cells. How it is done:
One of the immortalized DRG neuronal cell lines (50B11) maintained self-replication capability over many cell divisions (>300) and was used in further analysis of neuronal properties. Differentiation and axonal elongation was induced in these cells by addition of forskolin (50 μM) into the culture medium. Within hours, more than 90% cells stopped dividing and extended long neurites. These cells were grown in 24-well plates on glass coverslips, fixed with 4% paraformaldehyde and immunostained for presence of neurofilament (SMI-32 antibody from Stemberger Monoclonals Inc., Lutherville, Md.), ßIII-tubulin (Promega, Madison Wis.), transient receptor potential channel, vanilloid subfamily member-1 (TRPV-1) (Abeam, Cambridge, Mass.), calcitonin gene related protein (CGRP) (source, city, state) or isolectin B-4 (IB4) (Vector Laboratories, Burlingame, Calif.) using standard methods (Keswani et al., supra). Slides were counterstained with 4′,6-Diamidino-2-phenylindole (DAPI) and mounted with Vectashield (Vector Laboratories, Burlingame, Calif.). Specificity of all primary and secondary antibodies was confirmed using appropriate positive and negative control cultures.

For data set [4], the system named is 50B11 cells. Briefly: Real-time PCR of gene expression changes. It counts as cell-based, rat. How it is done: For analysis of changes in gene expression, 501311 cells were grown in media containing forskolin (50 μM), NGF (10 ng/ml), GDNF (10 ng/ml) or vehicle control for 24 hours. Total RNA was isolated using the TRIzol Reagent according to the manufacturer's recommendation. Two μg total RNA was reverse-transcribed using Ready-To-Go You-Prime First-Strand Bead (Amersham Biosciences, Piscataway, N.J.) according to manufacturer's protocols. Real-time PCR was carried out in a DNA Engine Opticon Continuous Fluorescence Detection System using DyNAmo SYBR Green Polymerase (MJ Research, Waltham, Mass.). All primers were designed according to the individual gene sequence in the GenBank/EMBL nucleotide sequence database (primer sequences are available upon request). The binding positions of all primers were chosen to produce amplicons of 150 to 200 base pairs and to achieve maximum efficiency and specificity. All primer sequences were checked for specificity by a BLAST search in the GenBank/EMBL nucleotide sequence database. The primers were synthesized by Integrated DNA Technologies, Inc. (Coralville, Iowa). […] The expression levels of individual genes before and after treatment were calculated using the comparative CT method.

Protocol for TRPV-1: Ca^2+ microfluorimetry and imaging in forskolin-differentiated 50HB cells were performed by ratiometric imaging of the Ca2+-sensitive fluorescent dye fura-2. Cells were grown on glass coverslips in 12-well dishes and calcium imaging was done with and without differentiation with 50-μM forskolin. Cell were loaded for 15 min at 37° C. with 2 M fura-2 acetoxymethyl ester (Molecular Probes, Carlsbad, Calif.) in Krebs-HEPES buffer (100 mM NaCl, 2.0 mM KCl, 1.0 mM CaCl2, 1.0 mM MgCl2, 1.0 mM NaH2PO4, 4.2 mM NaHCO3, 12.5 mM HEPES and 10.0 mM glucose), then washed for 3 times in buffer to remove remaining fura-2 ester. The coverslip with loaded cells was then mounted on an inverted epifluorescence microscope (Zeiss, Axiovert 200) and covered with 60 μl Krebs-HEPES buffer or buffer with capsaicin. In capsazepin pretreatment experiments, capsazepin was added Images were acquired every ˜3 seconds with an extended Hamamatsu Digital Camera C4742-95 (Hamamatsu Photonics, Barcelona, Spain) using a dual filter wheel (Sutter Instruments, Novato, Calif., USA) equipped with 340 and 380 nm, 10-nm-bandpass filters (Omega Optics, Madrid, Spain). Data was acquired using InCyt Im2 software (Intracellular Imaging, Inc.). Fluorescence changes are expressed as the ratio of fluorescence at 340 and 380 nm (F340/F380).

Regarding `CCC(C)(C)C(=O)C(=O)N1CCC[C@H]1C(=O)OCCCc1cccnc1` [GPI-1046], the “prevention of ddC neurotoxicity (ATP levels)” value in the data set on 50B11 cells [1] (co-administration with ddC) is on record as “preventable”.
Regarding `COc1cc(CNC(=O)CCCC/C=C/C(C)C)ccc1O` [capsaicin], the intracellular calcium levels result on TRPV-1 (50B11 cells, fura-2 F340/F380) is listed as “rapid rise in intracellular calcium levels”. Also, the “reduction in ATP levels” value in the data set on 50B11 cells [1] (10 μM capsaicin, differentiated 50B11 cells) is “about 50%”.
Turning to `Oc1cc2c(cc1O)CN(C(=S)NCCc1ccc(Cl)cc1)CCC2` [capsazepin], at TRPV-1 (pretreatment of 50B11 cells before capsaicin), the “prevention of capsaicin-induced rise in intracellular calcium” value is “preventable”. Besides, the “prevention of capsaicin-induced neurotoxicity (ATP levels)” value in the data set with 50B11 cells [1] (co-administration with capsaicin) is reported as “preventable”.
Consider `Nc1ccn([C@H]2CC[C@@H](CO)O2)c(=O)n1` [ddC], for which the “toxicity by total neuritic lengths” value in the data set on 50B11 cells [2] is given as “validated this toxicity”.
Turning to `C=C[C@@]1(C)CC(=O)[C@]2(O)[C@@]3(C)[C@@H](O)CCC(C)(C)[C@@H]3[C@H](O)[C@H](OC(C)=O)[C@@]2(C)O1` [forskolin], the “cells that stopped dividing and extended long neurites” value in the data set on 50B11 cells [3] (forskolin 50 μM in culture medium, within hours) is on record as “more than 90%”.
Regarding “NGF: neurotrophic factor, nerve growth factor”, the Trk-A upregulation entry in the data set on 50B11 cells [4] (forskolin plus NGF 10 ng/ml versus forskolin plus GDNF) is reported as “more upregulated”. In the data set on 50B11 cells [3], the “neurite extension in presence of neurotrophic factor” value is “extended longer neurites”.

B1: GDNF: neurotrophic factor acting on c-ret and GFRα-1 (protein, UniProt P39905 78-211, looked up)
Glial cell line-derived …: SPDKQMAVLPRRERNRQAAAANPENSRGKGRRGQRGKNRGCVLTAIHLNVTDLGLGYETKEELIFRYCSGSCDAAETTYDKILKNLSRNRRLVSDKVGQACCRPIAFDDDLSFLDDNLVYHILRKHSAKRCGCI
For B1, the GFRα-1 upregulation entry with 50B11 cells [4] (forskolin plus GDNF 10 ng/ml versus forskolin plus NGF) was “more upregulated”. Further, in the data set with 50B11 cells [3], the “neurite extension in presence of neurotrophic factor” value is “extended longer neurites”.

The values are drawn from patent US10273451B2, “Immortalization of cells including neuronal cells” (The Johns Hopkins University, priority 2005, dated 2019).
